According to BindingDB's records for doi:10.1016/j.ab.2009.08.013 (Novartis Institute For Tropical Diseases, 2009):
Non-standard residues stand in square brackets, D forms with d. Residues, ends and D or L forms follow the SMILES beside them. *: point of attachment. Nle = CCCC[C@H](N)C(=O)O; Bz = O=C(c1ccccc1)*

Columns and labels:
[1] = target: T1, Genome polyprotein [1394-1440]/[1476-1660,T1585M] (dengue virus type 3, UniProt P27915+Q6YMS4, T1585M); experiment: Enzyme Inhibition Assay
T1 construct: 1394-1440; 1476-1660
T1 sequence (P27915 1394-1440, stated change not applied): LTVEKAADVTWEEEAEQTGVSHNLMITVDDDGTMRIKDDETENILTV
T1 sequence (Q6YMS4 1476-1660, looked up, stated change not applied): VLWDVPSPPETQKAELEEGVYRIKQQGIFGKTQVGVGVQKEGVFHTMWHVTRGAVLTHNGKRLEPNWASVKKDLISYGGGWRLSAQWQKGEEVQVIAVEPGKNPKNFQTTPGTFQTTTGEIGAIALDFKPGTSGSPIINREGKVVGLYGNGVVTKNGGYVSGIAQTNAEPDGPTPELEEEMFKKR
Protocol: (§1) Inhibitors were assayed in a 96-well plate format. […] The reaction was initiated by the addition of substrate Bz-nKRR-AMC. Reaction progress was monitored continuously by following the increase in fluorescence on a Tecan Safire2 plate reader. IC50 values of inhibitors were derived by fitting the calculated initial velocities to a nonlinear regression curve using GraphPad Prism software. Each point of the IC50 curve was measured in duplicate during a single experiment.

[2] = target: T2, Genome polyprotein [1393-1439,E1407V]/[1476-1660,R1508K,A1566M] (dengue virus type 1, UniProt P17763+P33478, A1566M/E1407V/R1508K); experiment: Enzyme Inhibition Assay; conditions: pH 7.5; 37 °C
T2 construct: 1393-1439; 1476-1660
T2 sequence (P17763 1476-1660, looked up, stated change not applied): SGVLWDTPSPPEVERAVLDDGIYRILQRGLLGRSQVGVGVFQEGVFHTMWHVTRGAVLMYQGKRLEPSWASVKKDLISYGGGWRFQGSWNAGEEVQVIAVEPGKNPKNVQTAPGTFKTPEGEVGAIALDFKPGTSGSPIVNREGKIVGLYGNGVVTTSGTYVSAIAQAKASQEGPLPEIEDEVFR
T2 sequence (P33478 1393-1439, looked up, stated change not applied): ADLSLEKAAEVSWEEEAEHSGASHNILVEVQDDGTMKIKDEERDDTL
Protocol: as §1

[3] = target: T3, Genome polyprotein [1066-1250,R1182K]/[1394-1440,K1405R,D1408E] (dengue virus type 2, UniProt P14340+P27914, D1408E/K1405R/R1182K); experiment: Enzyme Inhibition Assay; conditions: pH 7.5; 37 °C
T3 construct: 1066-1250; 1394-1440
T3 sequence (P14340 1394-1440, looked up, stated change not applied): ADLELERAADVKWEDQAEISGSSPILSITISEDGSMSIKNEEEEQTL
T3 sequence (P27914 1066-1250, looked up, stated change not applied): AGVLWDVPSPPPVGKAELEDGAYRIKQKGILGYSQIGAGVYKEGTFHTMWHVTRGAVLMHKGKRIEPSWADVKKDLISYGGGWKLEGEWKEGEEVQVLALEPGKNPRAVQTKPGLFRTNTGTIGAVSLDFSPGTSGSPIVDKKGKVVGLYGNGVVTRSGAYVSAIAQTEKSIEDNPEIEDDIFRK
Protocol: as §1

[4] = target: T4, Genome polyprotein [1394-1440]/[1476-1660] (dengue virus type 4, UniProt Q58HT7); experiment: Enzyme Inhibition Assay
T4 construct: 1394-1440; 1476-1660
T4 sequence (Q58HT7 1394-1440): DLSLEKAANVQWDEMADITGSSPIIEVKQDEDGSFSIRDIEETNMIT
T4 sequence (Q58HT7 1476-1660): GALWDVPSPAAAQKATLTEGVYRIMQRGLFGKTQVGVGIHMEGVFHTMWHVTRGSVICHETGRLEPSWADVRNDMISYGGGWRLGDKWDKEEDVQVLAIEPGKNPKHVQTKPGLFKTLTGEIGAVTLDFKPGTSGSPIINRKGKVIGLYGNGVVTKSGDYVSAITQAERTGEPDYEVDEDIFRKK
Protocol: as §1

[5] = target: T5, Genome polyprotein [1424-1463]/[1502-1685] (West Nile virus, UniProt P06935); experiment: Enzyme Inhibition Assay (IC50) and Fluorescence Quench Assay (KD); conditions: pH 7.5; 37 °C
T5 construct: 1424-1463; 1502-1685
T5 sequence (P06935 whole entry) 1: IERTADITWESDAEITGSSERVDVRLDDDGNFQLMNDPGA
T5 sequence (P06935 whole entry) 2: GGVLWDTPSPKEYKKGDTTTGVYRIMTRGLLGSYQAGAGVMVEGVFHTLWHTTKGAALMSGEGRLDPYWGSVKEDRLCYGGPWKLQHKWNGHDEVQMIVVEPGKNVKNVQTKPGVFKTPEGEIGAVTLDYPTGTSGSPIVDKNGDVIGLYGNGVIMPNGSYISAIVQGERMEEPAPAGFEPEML
Protocol: (§2) Inhibitors were assayed in a 96-well plate format. […] The reaction was initiated by the addition of substrate Bz-nKRR-AMC. Reaction progress was monitored continuously by following the increase in fluorescence on a Tecan Safire2 plate reader. IC50 values of inhibitors were derived by fitting the calculated initial velocities to a nonlinear regression curve using GraphPad Prism software. Each point of the IC50 curve was measured in duplicate during a single experiment. Compounds were tested for binding (KD) using fluorescence quench assay. Two protein solutions were prepared (2-5 uM protein with and without 40 uM compound) and were mixed in a microplate to obtain 12 different compound concentrations ranging from 0 to 40 uM. Then each dilution comprising 90 ul was transferred to a UV-Star 96-well microplate. […] Binding curves were analyzed according to the two-state model describing the formation of a 1:1 complex. Kd values were obtained from curve-fit of binding isotherms.

[6] = target: T3, Genome polyprotein [1066-1250,R1182K]/[1394-1440,K1405R,D1408E]; experiment: as above; conditions: pH 7.5; 37 °C
Protocol: as §2

[7] = target: T5, Genome polyprotein [1424-1463]/[1502-1685]; experiment: Enzyme Inhibition Assay; conditions: pH 7.5; 37 °C
Protocol: as §1

Structure (SMILES) | IC50 [1] [µM] | IC50 [2] [µM] | IC50 [3] [µM] | IC50 [4] [µM] | Kd [5] [µM] | IC50 [6] [µM] | Kd [6] [µM] | IC50 [5] [µM] | IC50 [7] [µM]
CCCC[C@H](NC(=O)c1ccccc1)C(=O)N[C@@H](CCCCN)C(=O)N[C@@H](CCCNC(=N)N)C(=O)N[C@H](C=O)CCCNC(=N)N [Bz-Nle-Lys-Arg-Arg-H] (Bz-[Nle]KRR-aldehyde) | 7.9 | 11.8 | 8.9 | 1.4 | – | – | – | – | –
CC1CNC(c2ccc(Nc3nnc(Nc4ccc(C5=NC(C)CN5)cc4)c4ccccc34)cc2)=N1 (configuration not stated) [phthalazine-based compound, 1] | 17.5 | 36.4 | – | 32.8 | 21 | 6 | 7.2 | – | –
c1ccc(-c2ccc(Nc3nnc(Nc4ccc(C5=NCCN5)cc4)c4ccccc34)cc2)cc1 [phthalazine-based compound, 2] | 1.6 | 2 | – | 2 | – | 2.3 | – | 3.6 | –
c1ccc2c(Nc3ccc(C4=NC5CCCCC5N4)cc3)nnc(Nc3ccc(C4=NC5CCCCC5N4)cc3)c2c1 (configuration not stated) [phthalazine-based compound, 3] | 8.5 | 10.7 | – | 13.6 | 90 | 1.1 | 7.7 | 22 | –
c1ccc2c(Nc3ccc4c(c3)CNCC4)nnc(Nc3ccc(C4=NCCN4)cc3)c2c1 [phthalazine-based compound, 4] | 100 | 233 | – | 64.8 | 4.6 | 27.4 | 22.9 | – | –
NCc1ccc(Nc2nnc(Nc3ccc(C4=NCCN4)cc3)c3ccccc23)cc1 [phthalazine-based compound, 5] | 8.7 | 12.3 | – | 8.2 | 100 | 5.8 | 18.6 | – | –
c1ccc2c(Nc3ccc4c(c3)CCNC4)nnc(Nc3ccc(C4=NCCN4)cc3)c2c1 [phthalazine-based compound, 6] | 86 | 170 | – | 43 | 7 | 55 | 54 | 6.2 | –
COC(=O)c1ccc(-c2ccc(Nc3nnc(Nc4ccc(C5=NCCN5)cc4)c4ccccc34)cc2)cc1 [phthalazine-based compound, 7] | 1 | 2.72 | – | 1.3 | – | 1.6 | – | 2.2 | –
c1ccc2c(Nc3ccc(C4=NCCN4)cc3)nnc(Nc3ccc(C4=NCCN4)cc3)c2c1 [phthalazine-based compound, 8] | 27.9 | 21.4 | – | 19.8 | – | 10.2 | 16.3 | – | 16
Nc1ccc2c(Nc3ccc(C4=NCCN4)cc3)nnc(Nc3ccc(C4=NCCN4)cc3)c2c1 [phthalazine-based compound, 9] | > 100 | > 100 | – | > 100 | – | > 100 | 100 | – | –
